In patent US8492422B2, “Ester pro-drugs of [3-(1-(1H-imidazol-4-yl)ethyl)-2-methylphenyl] methanol for treating skin diseases and conditions” (Allergan, Inc., priority 2010, dated 2013):

Assay: In Vitro Human Skin Permeability Assay (static Franz diffusion cells)
Settings: in vitro Franz diffusion cell; 0.65% (Compound 2) and 0.55% (Compound 1) (w/w) dose; 48 hour dose exposure; 5 mg formulation/cm^2
Experimental: To assure the integrity of each skin section, its permeability to tritiated water was determined before application of the test products.

SMILES: Cc1c(COC(=O)C(C)C)cccc1[C@H](C)c1c[nH]cn1 [Compound 1, iso-Butyric acid 3-[(S)-1-(1H-imidazol-4-yl)-ethyl]-2-methyl-benzyl ester]
- penetration into and through ex vivo human trunk skin (percutaneous absorption): penetrate into and through ex vivo human trunk skin
